Series [1] in a line: Solubility in water (comparative data and examples). The format is physicochemical. Particulars: in 1 liter of water at 20-25° C.
For series [2] the following is noted: water at 20° C.; literature value (index Merck Ref. 1675; F.C.C. IV Ed. Page 153); cited from earlier work.

In the case of `O=C([O-])[C@H](O)[C@@H](O)[C@H](O)[C@H](O)CO.O=C([O-])[C@H](O)[C@@H](O)[C@H](O)[C@H](O)CO.[Fe+2]` [Fe(II) gluconate], the “solubility, amount in 1 liter of water” value in series [1] is given as 85-100 gr. In addition, the solubility in water in series [2] is reported as 100 gr/1000 ml.

The values above are taken from US20030049284A1, “Method of increasing the solubility of alphahydrocarboxilic salts, and products obtained by the method” (priority 2001, published 2003).
